Source: patent publication US4137313A, “2,5-Dihydro-1,2-thiazino(5,6-b)indole-3-carboxamide-1,1-dioxides and salts thereof” (Boehringer Ingelheim GmbH, priority 1977, dated 1979)

What was measured:
male and female mice = test: Determination of acute toxicity, oral administration; assay type: in vivo; conditions: 1 000 mgm/kg oral, 10 mice; for Dead animals within observation period 1 day: within 1 day; for Dead animals within observation period 7 days: within 7 days; for Dead animals within observation period 14 days: within 14 days
Experimental: (b) Determination of Acute Toxicity
The acute toxicity was determined in male and female mice after oral administration of the test compound as a suspension in tylose.

[1] = system: platelet aggregation in platelet-enriched plasma of healthy humans; test: BORN-Test, collagen-induced platelet aggregation; assay type: cell-based; conditions: Homo sapiens, vs control, read-out: % decrease in aggregation; for inhibition at 100 µM: 1 × 10^-4 Mol/liter; for inhibition at 10 µM: 1 × 10^-5 Mol/liter; for inhibition at 20 µM: 2 × 10^-5 Mol/liter; for inhibition at 2 µM: 2 × 10^-6 Mol/liter
Experimental: (a) BORN-Test, Collagen-Induced Aggregation
The platelet aggregation was measured according to the method of BORN and CROSS (J. Physiol. 170, pp. 397 [1964]) in platelet-enriched plasma of healthy humans. The decrease in the optical density of the platelet suspension after addition of collagen was measured and registered photometrically. From the angle of inclination of the density curve the rate of aggregation can be determined. […] The quantity of collagen was chosen so that it produced an irreversible control curve.
The indicated values refer to the optical density and signify the percentage change in the light transmission (=% decrease in aggregation) under the influence of the test compound in comparision to the control.
Commercial collagen manufactured by Hormon-Chemie, Munich, Germany, was used.

Structure (SMILES)	Dead animals within observation period 1 day (male and female mice)	Dead animals within observation period 7 days (male and female mice)	Dead animals within observation period 14 days (male and female mice)	inhibition at 100 µM [1] [%]	inhibition at 10 µM [1] [%]	inhibition at 1 µM ([1]; 1 × 10^-6 Mol/liter) [%]	inhibition at 20 µM [1] [%]	inhibition at 2 µM [1] [%]	inhibition at 0.2 µM ([1]; 2 × 10^-7 Mol/liter) [%]	inhibition at 50 µM ([1]; 5 × 10^-5 Mol/liter) [%]	inhibition at 5 µM ([1]; 5 × 10^-6 Mol/liter) [%]
CN1C(C(=O)Nc2nccs2)=C(O)c2c(c3cc(Cl)ccc3n2C)S1(=O)=O [E, 8-chloro-2,5-dihydro-2,5-dimethyl-4-hydroxy-N-(2-thiazolyl)-1,2-thiazino[5,6-b]indole-3-carboxamide-1,1-dioxide]	0	0	0	100	86	27					
Cc1nc(NC(=O)C2=C(O)c3c(c4ccccc4n3C)S(=O)(=O)N2C)sc1C [C, 2,5-dihydro-2,5-dimethyl-N-(4,5-dimethyl-2-thiazolyl)-4-hydroxy-1,2-thiazino[5,6-b]indole-3-carboxamide-1,1-dioxide]							89	82			
Cc1csc(NC(=O)C2=C(O)c3c(c4ccccc4n3C)S(=O)(=O)N2C)n1 [B, 2,5-dihydro-2,5-dimethyl-4-hydroxy-N-(4-methyl-2-thiazolyl)-1,2-thiazino[5,6-b]indole-3-carboxamide-1,1-dioxide]	0	0	0				100	97	42		
Cc1cccc(NC(=O)C2=C(O)c3c(c4ccccc4n3C)S(=O)(=O)N2C)n1 [D, 2,5-dihydro-2,5-dimethyl-4-hydroxy-N-(6-methyl-2-pyridyl)-1,2-thiazino[5,6-b]indole-3-carboxamide-1,1-dioxide]	0	0	0							86	60
COc1ccc2c(c1)c1c(n2C)C(O)=C(C(=O)Nc2ccccn2)N(C)S1(=O)=O [F, 2,5-dihydro-2,5-dimethyl-4-hydroxy-8-methoxy-N-(2-pyridyl)-1,2-thiazino[5,6-b]indole-3-carboxamide-1,1-dioxide]				85	43						
CN1C(C(=O)Nc2nccs2)=C(O)c2c(c3ccccc3n2C)S1(=O)=O [A, 2,5-dihydro-2,5-dimethyl-4-hydroxy-N-(2-thiazolyl)-1,2-thiazino[5,6-b]indole-3-carboxamide-1,1-dioxide]	0	0	0				96	81			
